Key:
[1] = test system: cerebral ischemia mice (C57BL6/J); experiment: Necrosis after cerebral ischemia, intraventricular administration; type: in vivo, mouse
Experimental: A cerebral ischemic area was artificially developed in wild-type mice (C57BL6/J) using embolic suture. Specifically, nylon suture was inserted from the right external carotid artery into the intracranial internal carotid artery, and the right middle cerebral artery was temporarily occluded. The embolic suture was removed 40 minutes after the formation of the ischemic area, and the blood was reperfused. Four hours after the formation of the ischemic area, 2 μl of MHP1 solution (0.625 μg/2 μl, the solvent was artificial cerebrospinal fluid (aCSF)) or 2 μl of aCSF was administered by injection into the ventricle of the mice with a neurological severe score of 1 or 2. Separately, a group to which edaravone, which is a known brain-protecting agent, was administered was also produced (aCSF intraventricular administration+3 mg/kg of edaravone i.p., administered every 12 hours). The brain was removed 72 hours after the formation of the ischemic area, and a brain slice including left and right brain portions in positions of 1.4, 0.7, and 0 mm in the front and rear of the bregma was produced. The slice was stained with cresyl violet. The area of the […] was regarded as the cerebral infarct area (necrosis site), and the ratio of cerebral infarct area was determined by the following formula. […] Ratio of cerebral infarct area=([normal side brain area]−([cerebral infarct side total area]−[cerebral infarct area])/normal side brain area)×100
Furthermore, the ratio of F4/80-positive cells (activated macrophage/microglia) in the cerebral infarction hemisphere in a position of 0.7 mm from the bregma (/middle cerebral artery region), and the number of the cells were measured.

[2] = test system: neuron-glia mixed culture; experiment: TNFα secretion by LPS in neuron-glia mixed culture system; type: cell-based, mouse
Experimental: Neuronal tissue (a mixture of neurons and glial cells) was removed from a mouse fetus 21 days after fertilization (21st fetal day), and cultured in Neurobasal medium (+B-27, +5% HS) for 9 days. Then, the cells were divided into 3 groups (A to C groups), and subjected to the following treatments.
The cells were cultured for 24 hours after the medium was changed to a medium (Neurobasal A/N2 supplement) containing MHP1 (final concentration: 1, 10, 30, or 50 μg/ml). Then, LPS (final concentration: 10 μg/ml) was added to the medium, and the cells were further cultured for 24 hours. After culture, the concentration of TNFα in the medium was measured by the ELISA method.
The cells were cultured for 24 hours after the medium was changed to a medium (Neurobasal A/N2 supplement) containing MHP1 (final concentration: 30 or 50 μg/ml) and LPS (final concentration: 10 μg/ml). After culture, the concentration of TNFα in the medium was measured by the ELISA method.

MG6 cells [3] = experiment: M1 shift of microglial cells by LPS (FACS); type: cell-based, mouse; conditions: MHP1 100 μg/ml, LPS 2 ng/ml, 24 hours; FIG. 8
Experimental: MG6 cells (mouse-derived microglial cell line) were cultured in a DMEM medium (+4% FBS) containing MHP1 (final concentration: 100 μg/ml) or RANKL protein (Recombinant Murin sRANKL Ligand (Cat No. 315-11): produced by Peprotech) (final concentration: 10 ng/ml), and LPS (final concentration: 2 ng/ml) for 24 hours by a standard method. After culture, the cells were washed with PBS, and Fc receptor blocking was performed using mouse IgG. Thereafter, F4/80-FITC (microglia marker antibody) and CD206-APC (M2 marker antibody) were added, and reacted at 4° C. for 30 minutes in a dark place. After the reaction, the cells were washed with PBS, and the percentage of microglia marker-positive and M2 marker-positive (M2 state) cells, and the percentage of microglia marker-positive and M2 marker-negative (M1 state) cells were measured by FACS analysis (FACSCanto II, produced by BD Biosciences).

RAW264.7 cells = experiment: Osteoclast-related mRNA expression (NFATc1, ACP5) by real-time RT-PCR; type: cell-based, mouse; conditions: MHP1 100 μg/ml, 3 days, FIG. 12A, 12B
Experimental: It has recently been reported that the administration of RANKL protein to mice induces the activation of osteoclasts. Accordingly, the influence of the RANKL peptide on osteoclasts was examined. The specific examination procedures were as follows. MHP1 (final concentration: 100 μg/ml) or RANKL protein (final concentration: 10 ng/ml) was added to a medium (DMEM medium (+4% FBS)) in which RAW264.7 cells were cultured, and the cells were collected after 10 minutes and 3 days.
For the samples collected after 10 minutes, nuclear proteins of the cells were extracted using the Nuclear Extract Kit (Active Motif), and the degree of NFκB (p65) activation was measured by the TransAM NFkB p65 Kit (Active Motif). On the other hand, for the samples collected after 3 days, the mRNA expression levels of NFATc1 and ACP5 were analyzed by real-time RT-PCR.

MG6 cells [4] = experiment: Stability of RANKL peptide: activity after storage in water; type: cell-based, mouse; conditions: 2 mg/ml in water, 4° C., 208 days
Experimental: MG6 cells (mouse-derived microglial cell line) were cultured in a DMEM medium (+4% FBS) containing MHP1 or MHP2 (final concentration: 50 or 100 μg/ml), and LPS (final concentration: 2 ng/ml) for 24 hours by a standard method. After culture, the concentrations of IL-6 and TNFα in the medium were measured by the ELISA method. In the Examples of the present application, the ELISA method was performed using a kit (Quantikine ELISA Mouse TNF-α or Quantikine ELISA Mouse IL-6, produced by R&D Systems). The results are shown in FIG. 1 (IL-6) and FIG. 2 (TNFα).
MHP1 was dissolved in water to a concentration of 2 mg/ml, and stored at 4° C. for 208 days. Thereafter, the proinflammatory cytokine secretion-inhibiting effect of this MHP1 was examined in the same manner as in Example 2, except that the final concentration of MHP1 was set to 100 μg/ml.

THP1 cells = experiment: Proinflammatory cytokine secretion inhibition, human macrophage cells; type: cell-based; conditions: MHP6 10-100 μg/ml or MHP1 100 μg/ml, LPS 2 ng/ml, 24 hours, FIG. 14
Experimental: THP1 cells (human-derived macrophage cell line) were cultured in a DMEM medium (+4% FBS) containing MHP6 (human-derived; final concentration: 10, 30, 50, or 100 μg/ml) or MHP1 (mouse-derived; final concentration: 100 μg/ml), and LPS (final concentration: 2 ng/ml) for 24 hours by a standard method. After culture, the concentration of IL-6 in the medium was measured by the ELISA method.

“LMVYVVKTSIKIPSSHNLMKGGSTKNWSGN (listed as Mus musculus) [MHP1]” was tested, and the “necrosis occurring after cerebral ischemia (ratio of cerebral infarct area)” value ([1]; 0.625 μg/2 μl into the ventricle 4 hours after ischemia, brain at 72 hours, FIG. 15) was “could be inhibited”, the “expression of activated macrophage/microglia (F4/80-positive cells)” value ([1]; cerebral infarction hemisphere, 0.7 mm from the bregma, FIG. 16) was “suppressed” and the “degree of inhibition of necrosis compared with edaravone administration” value ([1]; one MHP1 administration vs edaravone 3 mg/kg i.p. every 12 hours, FIG. 15) was “higher than edaravone administration”. The “increase in the amount of TNFα secretion by LPS” value ([2]; pretreatment (A group), MHP1 1, 10, 30 or 50 μg/ml 24 hours before LPS 10 μg/ml, FIG. 5) was “suppressed”, the “increase in the amount of TNFα secretion by LPS” value ([2]; simultaneous treatment (C group), MHP1 30 or 50 μg/ml with LPS 10 μg/ml, 24 hours, FIG. 7) was “suppressed” and the “M1 shift caused by LPS” value (MG6 cells [3]) was “suppressed”. For the same sequence, the “expression of osteoclast-related mRNA (NFATc1, ACP5)” value (RAW264.7 cells) was “did not promote”, the stability (MG6 cells [4]) was “high” and the “proinflammatory cytokine secretion-inhibiting effect after long-term storage” value (MG6 cells [4]; tested at 100 μg/ml on MG6 cells, FIG. 18) was “exhibited a proinflammatory cytokine secretion-inhibiting effect”. The “proinflammatory cytokine (IL-6) secretion-inhibiting activity on human-derived macrophage cells” value (THP1 cells) was “exhibited proinflammatory cytokine secretion-inhibiting activity”.
